Assay results as given in US20240199618A1, “NOVEL N-ACYL-[3-SUBSTITUTED]-[8-SUBSTITUTED]-5,6-DIHYDRO-[1,2,4]TRIAZOLO[4,3-a]PYRAZINES AS SELECTIVE NK-3 RECEPTOR ANTAGONISTS, PHARMACEUTICAL COMPOSITION, METHODS FOR USE IN NK-3 RECEPTOR-MEDIATED DISORDERS” (Ogeda SA, priority 2013, published 2024).
Where two headings read alike, the source gives them in different places.

Key:
human NK-3 receptor = human NK-3 receptor (Homo sapiens (Human), UniProt P29371); experiment: 3H-SB222200 binding competition assay with human NK-3 receptor
In short: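 Membranes from CHO cells stably expressing the receptor were incubated with 5 nM 3H-SB222200 and varying compound concentrations in HEPES 25 mM/NaCl 0.1 M/CaCl2 1 mM/MgCl2 5 mM/BSA 0.5%/saponin 10 μg/ml, pH 7.4. Bound radioligand was quantified as membrane-associated radioactivity after filtration.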

plasma estradiol = experiment: Estradiol circulating level in female rats; type: in vivo, rat; conditions: 10 mg/kg b.i.d. oral, 10 days, FIG. 3
Procedure: Effect of compounds of the invention on Estradiol circulating level in female rats The aim of this study was to evaluate the effect of compounds of the invention on plasma estradiol levels following oral administration at 10 mg/kg (b.i.d.) for a period of 10 days in female rats.
Briefly the experimental methods used for this study were as follows: Two groups of adult, female rats (Sprague-Dawley, ˜320 g) were treated in-phase with their individual estrous cycles. Thus, treatment was started in the proestrus phase (coincident with peak estradiol levels, as shown on Day 1 in FIG. 3) and rats were dosed twice daily (˜9 h30 and 17 h30) by oral administration either with a compound of the invention at 10 mg/kg or with the vehicle for the control group. Compounds of the invention were prepared in a dose formulation of pyrogen-free water with 0.5% methylcellulose. Estradiol levels were determined for all groups by ELISA performed on plasma samples derived from blood collections taken at 30 minutes before the daily, 9 h30 test article administration on all days presented in FIG. 3.

Sequence of human NK-3 receptor (P29371 whole entry): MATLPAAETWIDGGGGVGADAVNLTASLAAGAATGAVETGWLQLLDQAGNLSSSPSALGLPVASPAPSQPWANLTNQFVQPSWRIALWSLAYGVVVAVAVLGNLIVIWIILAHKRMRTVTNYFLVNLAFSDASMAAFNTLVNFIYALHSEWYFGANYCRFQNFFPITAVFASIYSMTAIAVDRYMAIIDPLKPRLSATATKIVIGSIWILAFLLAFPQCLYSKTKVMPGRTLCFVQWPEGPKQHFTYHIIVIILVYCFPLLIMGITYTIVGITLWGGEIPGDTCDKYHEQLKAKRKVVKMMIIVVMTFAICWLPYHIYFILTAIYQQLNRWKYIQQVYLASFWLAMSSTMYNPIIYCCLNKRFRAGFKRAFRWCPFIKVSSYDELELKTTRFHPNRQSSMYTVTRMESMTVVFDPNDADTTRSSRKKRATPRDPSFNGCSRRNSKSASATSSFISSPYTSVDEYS

- Ki (human NK-3 receptor; Table 2, 5 nM 3H-SB222200, CHO membranes, read-out: Competitive binding assay with human NK-3 receptor hNK-3 (Ki)): 23 nM
- Ki (human NK-3 receptor; Table 3 (selectivity table), read-out: hNK-3 (Ki)): 23 nM
Structure (SMILES): Cc1nsc(-c2nnc3n2CCN(C(=O)c2ccc(F)cc2)[C@@H]3C)n1 [Compound 5, (R)-(4-fluorophenyl)(8-methyl-3-(3-methyl-1,2,4-thiadiazol-5-yl)-5,6-dihydro-[1,2,4]triazolo[4,3-a]pyrazin-7(8H)-yl)methanone]
- estradiol levels (plasma estradiol): significantly decreased
